Data taken from patent publication US20220265657A1, “ADMINISTRATION METHOD AND DOSAGE REGIMEN FOR TREATMENT OF NEURODEGENERATIVE DISEASES USING TRAMETINIB AND MARKERS” (GENUV INC., priority 2019, published 2022).

Assays:
SH-SY5Y cells = experiment: Western blot of SH-SY5Y cell lysates; format: cell-based; details: co-treatment with trametinib, in the presence of Aβ1-42 oligomers
Experimental: (§1) Cell culture: SH-SY5Y neuroblastoma cells were cultured at 37° C., 5% CO2., in Dulbecco's Modified Eagle Medium/Ham's F-12 nutrient mixture (DMEM/F12) (Invitrogen, Carlsbad, Calif.) supplemented with 10% heat-inactivated fetal bovine serum containing 100 units/ml penicillin, 100 μg/ml streptomycin. Primary cortical neuron cultures were derived from embryo day 18 (E18) from ICR mice. The dissociated cells were plated on glass cover slips coated with poly-D-lysine in Neurobasal medium supplemented with 2% B27 (Invitrogen), 100 units/ml penicillin, 100 μg/ml streptomycin, and 2 mM L-glutamine. Primary NSCs from normal mice were isolated from the subventricular zone (SVZ) of 8 week-old C57BL/6 mice brain. NSCs from adult Tg2576 mice brain were obtained from Seoul National University Hospital. The neurospheres were cultured as previously described (M. Y. Kim, B. S. Moon, K. Y. Choi, Isolation and maintenance of cortical neural progenitor cells in vitro. Methods Mol Biol 1018, 3-10 (2013)). For neurosphere culture from normal mice, the cells were dissociated from brain tissue and grown in N2 medium in 25 cm^2 flasks (SPL, Gyeonggi-do, Korea) in suspension. bFGF (20 ng/ml, Peprotech, Princeton, N.J.) and human EGF (20 ng/ml, Peprotech) were added to the media to allow the cells to form neurospheres. For analyses, NSCs were cultured as a monolayer. For differentiation of NSCs, the neurospheres were dissociated with TrypLE (Invitrogen), plated on 15 μg/ml poly-L-ornithine-(Sigma-Aldrich, St. Louis, Mo.) and 10 μg/ml fibronectin (Gibco)-coated plates, and cultured in bFGF- and EGF-depleted N2 medium for 2 days. For neurosphere culture from Tg2576 mice, the cells were grown in DMEM/F12 supplemented with B27 supplements in 75 cm^2 flasks (SPL) in suspension. bFGF (10 ng/ml) and human EGF (10 ng/ml) were added to the media to allow the cells to form neurospheres. For inducing differentiation and AP expression, the neurospheres were dissociated with pipetting, plated on 15 μg/ml poly-L-ornithine- and 10 μg/ml fibronectin (Gibco)-coated plates, and cultured in bFGF- and EGF-depleted medium for 2 days.
(§2) Lysates were centrifuged at 13,000 rpm for 20 min at 4° C., and the protein content in the supernatant was determined using the Bradford assay (Bio-rad, Hercules, Calif.). For subcellular fractionation, cells were lysed with lysis buffer (250 mM Sucrose, 20 mM HEPES, pH 7.4, 10 mM KCl, 1.5 mM MgCl2, 1 mM EGTA, 1 mM EDTA, 1 mM DTT) containing protease inhibitor for 30 min on ice, followed by centrifugation at 720 g for 5 min at 4° C. Supernatants were centrifuged at 15,000 rpm for 10 min at 4° C., and the resulting supernatant was used as the cytosol fraction. After centrifugation at 720 g for 5 min, pellets were washed with lysis buffer and dissolved in nuclear lysis buffer (50 mM Tris HCl, pH 8.0, 150 mM NaCl, 1% NP40, 0.5% sodium deoxycholate, 0.1% SDS, 10% glycerol) as the nuclear fraction. Protein from each sample was subjected to 8%˜15% SDS-PAGE, and the resolved proteins were transferred to nitrocellulose or polyvinylidene fluoride membrane. The membranes were blocked with 5% nonfat milk powder in Tris-buffered saline/Tween 20 (TBST) for 1 h at room temperature, then incubated with anti-phospho-ERK (Cell signaling), anti-ERK (Cell signaling), anti-LAMP1 (Abcam), anti-LC3 (Cell signaling), anti-cathepsin B (Cell signaling), anti-p62 (Cell signaling), anti-p62 (5114, Cell signaling), anti-phospho-mTOR (5536, Cell signaling), anti-mTOR (2983, Cell signaling), anti-phospho-ULK1 (14202, Cell signaling), anti-ULK1 (8054, Cell signaling), anti-TFEB (852501, Biolegend), and anti-GAPDH (Cell signaling) overnight at 4° C.

primary cortical neurons [1] = experiment: Dendritic spine formation in primary cortical neurons; format: cell-based, ICR mice; details: Aβ1-42 oligomer alone
Experimental: as §1, with “For inducing differentiation and AP expression, the neurospheres were dissociated with pipetting, plated on 15 μg/ml poly-L-ornithine- and 10 μg/ml fibronectin (Gibco)-coated plates, and cultured in bFGF- and EGF-depleted medium for 2 days.” left out

primary cortical neurons [2] = experiment: Western blot of primary cortical neurons; format: cell-based, ICR mice; details: Aβ1-42 oligomers alone
Experimental: as §2

Molecule | effect of trametinib on increasing mature cathepsin B and decreasing p62 (SH-SY5Y cells) | decrease in number of dendritic spines compared to vehicle treated group (CTL) (primary cortical neurons [1]) [%] | decrease of mature cathepsin B level compared to non-treated neurons (CTL) (primary cortical neurons [2]) [%]
CO/C1=C\C(C)=C\[C@@H](C)[C@@H](O)[C@@H](C)C/C(C)=C/C=C/[C@H](OC)[C@@H]([C@@H](C)[C@@H](O)[C@H](C)[C@@]2(O)C[C@@H](O)[C@H](C)[C@@H](C(C)C)O2)OC1=O [bafilomycin A1] | eliminated the effect of trametinib |  | 
Aβ1-42 oligomers: cytotoxic oligomers of Aβ1-42 used to induce neurotoxic conditions |  | 24 | 26
